Values of other authors as cited in patent publication US6444224B1 (Interag, priority 1997, dated 2002).

Columns and labels:
pigs [1] = conditions: oral, once daily at feeding
pigs [2] = conditions: 15, 25, 50 mg per day (IM) for 14 days

Compound | Effectiveness to control oestrus and ovulation (pigs [1]) | Control of the oestrus cycle (pigs [2]) | Fertility (pigs [2])
C=CC[C@]1(O)CC[C@H]2[C@@H]3CCC4=CC(=O)CCC4=C3C=C[C@@]21C [altrenogest] | effective | – | –
C=CC(C)NC(=S)NNC(=S)NC (stereo not shown) [methallibure] | effective | – | –
CC(=O)[C@H]1CC[C@H]2[C@@H]3CCC4=CC(=O)CC[C@]4(C)[C@H]3CC[C@]12C [progesterone] | – | results in control of the oestrus cycle | poor fertility results
